Data on 9 molecules can be found in PubChem BioAssay AID258 (DTP/NCI, 2004).

Where “and” joins values, the source holds several entries; their conditions need not be identical. Identical values can stand only once. Toxic doses and inconclusive results are not listed.

This assay deals with CD2F1 mice, L1210 leukemia sc, survival T/C. The experiment in a line: NCI In Vivo Anticancer Drug Screen. Data for tumor model L1210 Leukemia (subcutaneous) in CD2F1 (CDF1) mice. The note with it: endpoint: median survival time, higher = longer survival. An outline of the steps: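 Transplantable tumor-bearing mice were treated with compound; survival or tumor size measured and expressed as treated-group value (T) divided by vehicle-treated control value (C).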

The mark [1] stands for this setting: dose: 50.0 mg/kg/injection, schedule: Q01DX009 (sc), vehicle: saline with Tween-80.
Setting [2] is: dose: 100.0 mg/kg/injection, schedule: Q01DX009 (sc), vehicle: saline with Tween-80.

For the molecule `COc1cc([C@@H]2c3cc4c(cc3[C@H](OC(C)=O)[C@H]3COC(=O)[C@@H]23)OCO4)cc(OC)c1OC`, the T/C (dose: 500.0 mg/kg/injection, schedule: Q01DX Z (sc), vehicle: methylcellulose (MC)) is 100 % of control.

Consider `CC1CN1CCS(=O)(=O)CCN1CC1C` (centres undefined), for which the T/C is, setting by setting: (dose: 0.17 mg/kg/injection, schedule: Q01DX Z (sc), vehicle: other) 100 % of control; (dose: 2.16 mg/kg/injection, schedule: Q01DX Z (sc), vehicle: other) 100 % of control; (dose: 3.6 mg/kg/injection, schedule: Q01DX Z (sc), vehicle: other) 122 % of control; (dose: 6.0 mg/kg/injection, schedule: Q01DX Z (sc), vehicle: other) 122 % of control.

Consider `Nc1nc2c(c(=O)[nH]1)NC(CCNc1ccc(C(=O)NC(CCC(=O)O)C(=O)O)cc1)CN2` (centres undefined), for which the T/C was 120 % of control (dose: 25.0 mg/kg/injection, schedule: Q03HX Z (ip), vehicle: other); 120 % of control (dose: 50.0 mg/kg/injection, schedule: Q03HX Z (ip), vehicle: other); 120 % of control (dose: 100.0 mg/kg/injection, schedule: Q01DX Z (ip), vehicle: other); 100 % of control (dose: 100.0 mg/kg/injection, schedule: Q04DX Z (ip), vehicle: other); 100 % of control (dose: 200.0 mg/kg/injection, schedule: Q04DX Z (ip), vehicle: other); 100 % of control (dose: 800.0 mg/kg/injection, schedule: Q01DX Z (ip), vehicle: other).

For the molecule `CSCS(=O)C[C@H](CO)NC(=O)/C=C/c1c(C)[nH]c(=O)[nH]c1=O` (some centres undefined), the T/C is, setting by setting: (dose: 1.08 mg/kg/injection, schedule: Q01DX Z (sc), vehicle: saline) 110 % of control; (dose: 1.8 mg/kg/injection, schedule: Q01DX Z (sc), vehicle: saline) 110 % of control; (dose: 3.0 mg/kg/injection, schedule: Q01DX Z (sc), vehicle: saline) 100 % of control; (dose: 5.0 mg/kg/injection, schedule: Q01DX Z (sc), vehicle: saline) 90 % of control.

Take `CCOC(=O)c1c[nH]c2oc(/C=N/N3CC(CN4CCOCC4)OC3=O)cc2c1=O` (centres undefined): the T/C is, setting by setting: (dose: 25.0 mg/kg/injection, schedule: Q01DX009 (ip), vehicle: acid diluted with saline) 101 % of control; (dose: 50.0 mg/kg/injection, schedule: Q01DX009 (ip), vehicle: acid diluted with saline) 109 % of control; (dose: 50.0 mg/kg/injection, schedule: Q01DX009 (ip), vehicle: other) 102 % of control; (dose: 79.0 mg/kg/injection, schedule: Q01DX005 (ip), vehicle: other) 108 % of control and 111 % of control; (dose: 100.0 mg/kg/injection, schedule: Q01DX009 (ip), vehicle: acid diluted with saline) 110 % of control; (dose: 118.7 mg/kg/injection, schedule: Q01DX005 (ip), vehicle: other) 109 % of control and 119 % of control. Moreover, the T/C (dose: 178.0 mg/kg/injection, schedule: Q01DX005 (ip), vehicle: other) is 113 % of control; the T/C (dose: 200.0 mg/kg/injection, schedule: Q01DX009 (ip), vehicle: acid diluted with saline) is 155 % of control; the T/C (dose: 400.0 mg/kg/injection, schedule: Q01DX005 (ip), vehicle: other) was 198 % of control; the T/C (dose: 400.0 mg/kg/injection, schedule: Q01DX009 (ip), vehicle: acid diluted with saline) is 156 % of control.

Turning to `CC/C(=C(/CC)c1ccc(O)cc1)c1ccc(O)cc1`, the T/C was 103 % of control (dose: 12.5 mg/kg/injection, schedule: Q01DX009 (ip), vehicle: saline with Tween-80); 98 % of control (dose: 12.5 mg/kg/injection, schedule: Q01DX009 (sc), vehicle: saline with Tween-80); 104 % of control (dose: 25.0 mg/kg/injection, schedule: Q01DX009 (ip), vehicle: saline with Tween-80); 98 % of control and 100 % of control (dose: 25.0 mg/kg/injection, schedule: Q01DX009 (sc), vehicle: saline with Tween-80); 100 % of control (dose: 50.0 mg/kg/injection, schedule: Q01DX009 (ip), vehicle: saline with Tween-80); 102 % of control under setting [1]. The T/C is 97 % of control (dose: 100.0 mg/kg/injection, schedule: Q01DX009 (ip), vehicle: saline with Tween-80); 96 % of control and 97 % of control under setting [2]; 96 % of control (dose: 200.0 mg/kg/injection, schedule: Q01DX009 (ip), vehicle: saline with Tween-80); 106 % of control (dose: 200.0 mg/kg/injection, schedule: Q01DX009 (sc), vehicle: saline with Tween-80); 101 % of control (dose: 400.0 mg/kg/injection, schedule: Q01DX009 (sc), vehicle: saline with Tween-80).

On to `CCN=c1cc2oc3cc(NCC)c(C)cc3c(-c3ccccc3C(=O)OCC)c-2cc1C`, for which the T/C runs as follows: (dose: 0.63 mg/kg/injection, schedule: Q01DX009 (ip), vehicle: water) 102 % of control; (dose: 0.63 mg/kg/injection, schedule: Q01DX009 (sc), vehicle: water) 100 % of control; (dose: 1.25 mg/kg/injection, schedule: Q01DX009 (ip), vehicle: water) 96 % of control; (dose: 1.25 mg/kg/injection, schedule: Q01DX009 (sc), vehicle: water) 104 % of control and 97 % of control; (dose: 2.5 mg/kg/injection, schedule: Q01DX009 (sc), vehicle: water) 105 % of control; (dose: 5.0 mg/kg/injection, schedule: Q01DX009 (sc), vehicle: water) 104 % of control.

For the molecule `Cc1c(-c2ccc(-c3ccccc3F)cc2)nc2ccc(F)cc2c1C(=O)O`, the T/C by setting is: (dose: 12.5 mg/kg/injection, schedule: Q01DX009 (ip), vehicle: saline) 153 % of control; (dose: 25.0 mg/kg/injection, schedule: Q01DX009 (ip), vehicle: saline) 156 % of control; (dose: 50.0 mg/kg/injection, schedule: Q01DX009 (ip), vehicle: saline) 150 % of control.

In the case of `CC(CN1CC(=O)NC(=O)C1)N1CC(=O)NC(=O)C1` (centres undefined), the T/C is 119 % of control (dose: 1.25 mg/kg/injection, schedule: Q01DX009 (ip), vehicle: saline with Tween-80); 113 % of control (dose: 1.88 mg/kg/injection, schedule: Q01DX009 (sc), vehicle: saline with Tween-80); 114 % of control (dose: 2.5 mg/kg/injection, schedule: Q01DX009 (ip), vehicle: saline with Tween-80); 159 % of control (dose: 15.0 mg/kg/injection, schedule: Q01DX009 (ip), vehicle: saline with Tween-80); 178 % of control (dose: 15.0 mg/kg/injection, schedule: Q01DX009 (sc), vehicle: saline with Tween-80); 124 % of control (dose: 15.0 mg/kg/injection, schedule: Q01DX009 (sc), vehicle: saline). For the same molecule, the T/C (dose: 20.0 mg/kg/injection, schedule: Q01DX009 (sc), vehicle: saline with Tween-80) is 156 % of control; the T/C (dose: 30.0 mg/kg/injection, schedule: Q01DX009 (ip), vehicle: saline with Tween-80) was 178 % of control; the T/C (dose: 35.0 mg/kg/injection, schedule: Q01DX009 (sc), vehicle: saline with Tween-80) was 191 % of control; the T/C (dose: 40.0 mg/kg/injection, schedule: Q01DX009 (ip), vehicle: saline with Tween-80) is 165 % of control; the T/C (dose: 40.0 mg/kg/injection, schedule: Q01DX009 (sc), vehicle: saline with Tween-80) is 186 % of control; the T/C (dose: 45.0 mg/kg/injection, schedule: Q01DX009 (sc), vehicle: saline with Tween-80) was 190 % of control and 192 % of control. Moreover, the T/C under setting [1] was 195 % of control; the T/C (dose: 60.0 mg/kg/injection, schedule: Q01DX009 (sc), vehicle: saline with Tween-80) is 164 % of control; the T/C (dose: 90.0 mg/kg/injection, schedule: Q01DX009 (ip), vehicle: saline with Tween-80) is 123 % of control; the T/C under setting [2] was 163 % of control; the T/C (dose: 108.0 mg/kg/injection, schedule: Q04DX003 (sc), vehicle: Klucel (hydroxypropylcellulose) (HPC)) is 119 % of control and 122 % of control; the T/C (dose: 120.0 mg/kg/injection, schedule: Q01DX009 (ip), vehicle: saline with Tween-80) was 158 % of control. Moreover, the T/C reads like this: (dose: 120.0 mg/kg/injection, schedule: Q01DX009 (sc), vehicle: saline) 157 % of control; (dose: 180.0 mg/kg/injection, schedule: Q04DX003 (sc), vehicle: Klucel (hydroxypropylcellulose) (HPC)) 122 % of control; (dose: 240.0 mg/kg/injection, schedule: Q01DX009 (ip), vehicle: saline with Tween-80) 97 % of control; (dose: 240.0 mg/kg/injection, schedule: Q01DX009 (sc), vehicle: saline with Tween-80) 86 % of control; (dose: 300.0 mg/kg/injection, schedule: Q04DX003 (sc), vehicle: Klucel (hydroxypropylcellulose) (HPC)) 153 % of control; (dose: 833.0 mg/kg/injection, schedule: Q04DX003 (sc), vehicle: Klucel (hydroxypropylcellulose) (HPC)) 111 % of control and 112 % of control.
